Measurements: patent publication US11008337B2, “Chiral diaryl macrocycles as modulators of protein kinases” (Turning Point Therapeutics, Inc., priority 2015, dated 2021)

Assays:
Format in all cases: cell-based
CD74-ROS1 Ba/F3 = biological target: T1, CD74-ROS1 Ba/F3 (Homo sapiens, UniProt P08922); experiment: Cell proliferation assay, CD74-ROS1 Ba/F3 stable cell line (CellTiter-Glo); conditions: Ba/F3-CD74-ROS1 wild type cells, 72 hours compound incubation; read-out: Cell Proliferation IC50 CD74-ROS1 Ba/F3
T1 construct: fused on or other part: P04233 (HLA class II histocompatibility antigen gamma chain)
Excerpt: (§1) Creation of CD74-ROS1 and EML4-ALK Ba/F3 Stable Cell Lines and Cell Proliferation Assays.
(§2) The CD74-ROS1 wild-type gene and EML4-ALK wild-type gene (variant 1) were synthesized at GenScript and cloned into pCDH-CMV-MCS-EF1-Puro plasmid (System Biosciences, Inc). Ba/F3-CD74-ROS1 and Ba/F3-EML4-ALK wild type cell lines were generated by infecting Ba/F3 cells with lentivirus containing CD74-ROS1 wide-type and EML4-ALK wild type. Stable cell lines were selected by puromycin treatment, followed by IL-3 withdrawal. 3000 cells were seeded in 384 well white plate overnight before compound treatment. Cell proliferation was measured using CellTiter-Glo luciferase-based ATP detection assay (Promega) following the manufactures's protocol after 72 hours of various concentration of compound incubation. IC50 determinations were performed using GraphPad Prism software (GraphPad, Inc., San Diego, Calif.).

EML4-ALK Ba/F3 = biological target: T2, EML4-ALK Ba/F3 (Homo sapiens, UniProt Q9UM73); experiment: Cell proliferation assay, EML4-ALK Ba/F3 stable cell line (CellTiter-Glo); conditions: Ba/F3-EML4-ALK wild type (variant 1) cells, 72 hours compound incubation; read-out: Cell Proliferation IC50 EML4-ALK Ba/F3
T2 construct: fused on or other part: Q9HC35 (Echinoderm microtubule-associated protein-like 4)
Excerpt: as §1, §2

[1] = test system: T cell lymphoma Karpas-299 cell line (harboring endogenous NPM-ALK fusion gene); experiment: Cell proliferation assay, Karpas-299 cells (CellTiter-Glo); conditions: Homo sapiens, 72 hours incubation
Description: (§3) Cell Proliferation Assays.
(§4) Colorectal cell lines KM 12 (harboring endogenous TPM3-TRKA fusion gene) cells were cultured in DMEM medium, supplemented with 10% fetal bovine serum and 100 U/mL of penicillin/streptomycin. 5000 cells were seeded in 384 well white plate for 24 hours before compounds treatment. Cell proliferation was measured using CellTiter-Glo luciferase-based ATP detection assay (Promega) following the manufactures's protocol after 72 hours incubation. IC50 determinations were performed using GraphPad Prism software (GraphPad, Inc., San Diego, Calif.). Alternatively, essential thrombocythemia cell line SET-2 cells (harboring endogenous JAK2 V618F point mutation) or T cell lymphoma Karpas-299 cell line (harboring endogenous NPM-ALK fusion gene) were cultured in RPMI medium, supplemented with 10% fetal bovine serum and 100 U/mL of penicillin/streptomycin. 5000 cells were seeded in 384 well white plate for 24 hours before compounds treatment. Cell proliferation was measured using CellTiter-Glo luciferase-based ATP detection assay (Promega) following the manufactures's protocol after 72 hours incubation. IC50 determinations were performed using GraphPad Prism software (GraphPad, Inc., San Diego, Calif.).

[2] = test system: Colorectal cell lines KM 12 (harboring endogenous TPM3-TRKA fusion gene); experiment: Cell proliferation assay, KM12 cells (CellTiter-Glo); conditions: Homo sapiens, 72 hours incubation
Description: as §3
as §4, with “Alternatively, essential thrombocythemia cell line SET-2 cells (harboring endogenous JAK2 V618F point mutation) or T cell lymphoma Karpas-299 cell line (harboring endogenous NPM-ALK fusion gene) were cultured in RPMI medium, supplemented with 10% fetal bovine serum and 100 U/mL of penicillin/streptomycin.” left out

[3] = test system: essential thrombocythemia cell line SET-2 cells (harboring endogenous JAK2 point mutation); experiment: Cell proliferation assay, SET-2 cells (CellTiter-Glo); conditions: Homo sapiens, 72 hours incubation, read-out: Cell Proliferation IC50 SET2
Description: as §3, §4

T2 sequence (Q9UM73 whole entry, change not shown, the tested form may be a part): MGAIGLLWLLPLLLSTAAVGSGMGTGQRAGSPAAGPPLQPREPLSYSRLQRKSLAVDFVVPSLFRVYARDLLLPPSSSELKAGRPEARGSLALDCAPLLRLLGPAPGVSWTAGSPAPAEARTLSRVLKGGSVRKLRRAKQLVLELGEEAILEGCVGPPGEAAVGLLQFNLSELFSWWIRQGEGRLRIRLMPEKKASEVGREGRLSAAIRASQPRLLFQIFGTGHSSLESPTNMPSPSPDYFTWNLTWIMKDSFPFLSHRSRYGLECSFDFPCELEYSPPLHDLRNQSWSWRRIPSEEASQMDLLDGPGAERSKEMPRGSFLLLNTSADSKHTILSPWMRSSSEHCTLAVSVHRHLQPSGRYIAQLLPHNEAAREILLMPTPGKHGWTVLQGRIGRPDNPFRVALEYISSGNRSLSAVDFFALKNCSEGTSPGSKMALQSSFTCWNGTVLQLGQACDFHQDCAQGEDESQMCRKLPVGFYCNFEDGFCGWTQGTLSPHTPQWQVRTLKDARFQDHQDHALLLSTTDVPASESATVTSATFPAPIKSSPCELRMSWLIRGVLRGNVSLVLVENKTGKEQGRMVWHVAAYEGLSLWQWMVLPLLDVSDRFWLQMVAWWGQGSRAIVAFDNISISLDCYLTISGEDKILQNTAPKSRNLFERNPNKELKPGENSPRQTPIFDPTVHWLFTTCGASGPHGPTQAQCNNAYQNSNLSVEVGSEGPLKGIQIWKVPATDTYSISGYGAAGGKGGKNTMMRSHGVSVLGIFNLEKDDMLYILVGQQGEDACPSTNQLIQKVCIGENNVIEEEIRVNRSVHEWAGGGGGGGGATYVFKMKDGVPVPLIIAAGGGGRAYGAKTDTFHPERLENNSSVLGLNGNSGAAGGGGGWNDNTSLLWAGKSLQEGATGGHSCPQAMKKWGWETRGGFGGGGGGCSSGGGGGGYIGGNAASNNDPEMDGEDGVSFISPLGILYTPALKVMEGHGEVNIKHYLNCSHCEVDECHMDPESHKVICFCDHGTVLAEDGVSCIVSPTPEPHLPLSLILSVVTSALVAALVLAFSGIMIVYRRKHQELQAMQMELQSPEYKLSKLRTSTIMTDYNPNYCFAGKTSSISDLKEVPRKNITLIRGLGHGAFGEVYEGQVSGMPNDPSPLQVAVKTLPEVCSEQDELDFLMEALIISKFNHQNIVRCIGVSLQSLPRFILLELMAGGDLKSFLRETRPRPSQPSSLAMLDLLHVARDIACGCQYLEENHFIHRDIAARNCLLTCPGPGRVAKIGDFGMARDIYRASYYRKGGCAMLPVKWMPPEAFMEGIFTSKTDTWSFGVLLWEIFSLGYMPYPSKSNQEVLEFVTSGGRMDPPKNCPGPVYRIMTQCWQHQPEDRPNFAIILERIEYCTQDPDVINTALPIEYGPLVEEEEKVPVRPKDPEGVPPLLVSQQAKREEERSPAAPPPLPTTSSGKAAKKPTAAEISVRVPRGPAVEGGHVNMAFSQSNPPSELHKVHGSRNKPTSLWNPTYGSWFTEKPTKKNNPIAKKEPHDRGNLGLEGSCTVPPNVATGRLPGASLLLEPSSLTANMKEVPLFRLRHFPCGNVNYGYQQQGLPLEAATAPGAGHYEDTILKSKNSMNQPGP
T1 sequence (P08922 whole entry, change not shown, the tested form may be a part): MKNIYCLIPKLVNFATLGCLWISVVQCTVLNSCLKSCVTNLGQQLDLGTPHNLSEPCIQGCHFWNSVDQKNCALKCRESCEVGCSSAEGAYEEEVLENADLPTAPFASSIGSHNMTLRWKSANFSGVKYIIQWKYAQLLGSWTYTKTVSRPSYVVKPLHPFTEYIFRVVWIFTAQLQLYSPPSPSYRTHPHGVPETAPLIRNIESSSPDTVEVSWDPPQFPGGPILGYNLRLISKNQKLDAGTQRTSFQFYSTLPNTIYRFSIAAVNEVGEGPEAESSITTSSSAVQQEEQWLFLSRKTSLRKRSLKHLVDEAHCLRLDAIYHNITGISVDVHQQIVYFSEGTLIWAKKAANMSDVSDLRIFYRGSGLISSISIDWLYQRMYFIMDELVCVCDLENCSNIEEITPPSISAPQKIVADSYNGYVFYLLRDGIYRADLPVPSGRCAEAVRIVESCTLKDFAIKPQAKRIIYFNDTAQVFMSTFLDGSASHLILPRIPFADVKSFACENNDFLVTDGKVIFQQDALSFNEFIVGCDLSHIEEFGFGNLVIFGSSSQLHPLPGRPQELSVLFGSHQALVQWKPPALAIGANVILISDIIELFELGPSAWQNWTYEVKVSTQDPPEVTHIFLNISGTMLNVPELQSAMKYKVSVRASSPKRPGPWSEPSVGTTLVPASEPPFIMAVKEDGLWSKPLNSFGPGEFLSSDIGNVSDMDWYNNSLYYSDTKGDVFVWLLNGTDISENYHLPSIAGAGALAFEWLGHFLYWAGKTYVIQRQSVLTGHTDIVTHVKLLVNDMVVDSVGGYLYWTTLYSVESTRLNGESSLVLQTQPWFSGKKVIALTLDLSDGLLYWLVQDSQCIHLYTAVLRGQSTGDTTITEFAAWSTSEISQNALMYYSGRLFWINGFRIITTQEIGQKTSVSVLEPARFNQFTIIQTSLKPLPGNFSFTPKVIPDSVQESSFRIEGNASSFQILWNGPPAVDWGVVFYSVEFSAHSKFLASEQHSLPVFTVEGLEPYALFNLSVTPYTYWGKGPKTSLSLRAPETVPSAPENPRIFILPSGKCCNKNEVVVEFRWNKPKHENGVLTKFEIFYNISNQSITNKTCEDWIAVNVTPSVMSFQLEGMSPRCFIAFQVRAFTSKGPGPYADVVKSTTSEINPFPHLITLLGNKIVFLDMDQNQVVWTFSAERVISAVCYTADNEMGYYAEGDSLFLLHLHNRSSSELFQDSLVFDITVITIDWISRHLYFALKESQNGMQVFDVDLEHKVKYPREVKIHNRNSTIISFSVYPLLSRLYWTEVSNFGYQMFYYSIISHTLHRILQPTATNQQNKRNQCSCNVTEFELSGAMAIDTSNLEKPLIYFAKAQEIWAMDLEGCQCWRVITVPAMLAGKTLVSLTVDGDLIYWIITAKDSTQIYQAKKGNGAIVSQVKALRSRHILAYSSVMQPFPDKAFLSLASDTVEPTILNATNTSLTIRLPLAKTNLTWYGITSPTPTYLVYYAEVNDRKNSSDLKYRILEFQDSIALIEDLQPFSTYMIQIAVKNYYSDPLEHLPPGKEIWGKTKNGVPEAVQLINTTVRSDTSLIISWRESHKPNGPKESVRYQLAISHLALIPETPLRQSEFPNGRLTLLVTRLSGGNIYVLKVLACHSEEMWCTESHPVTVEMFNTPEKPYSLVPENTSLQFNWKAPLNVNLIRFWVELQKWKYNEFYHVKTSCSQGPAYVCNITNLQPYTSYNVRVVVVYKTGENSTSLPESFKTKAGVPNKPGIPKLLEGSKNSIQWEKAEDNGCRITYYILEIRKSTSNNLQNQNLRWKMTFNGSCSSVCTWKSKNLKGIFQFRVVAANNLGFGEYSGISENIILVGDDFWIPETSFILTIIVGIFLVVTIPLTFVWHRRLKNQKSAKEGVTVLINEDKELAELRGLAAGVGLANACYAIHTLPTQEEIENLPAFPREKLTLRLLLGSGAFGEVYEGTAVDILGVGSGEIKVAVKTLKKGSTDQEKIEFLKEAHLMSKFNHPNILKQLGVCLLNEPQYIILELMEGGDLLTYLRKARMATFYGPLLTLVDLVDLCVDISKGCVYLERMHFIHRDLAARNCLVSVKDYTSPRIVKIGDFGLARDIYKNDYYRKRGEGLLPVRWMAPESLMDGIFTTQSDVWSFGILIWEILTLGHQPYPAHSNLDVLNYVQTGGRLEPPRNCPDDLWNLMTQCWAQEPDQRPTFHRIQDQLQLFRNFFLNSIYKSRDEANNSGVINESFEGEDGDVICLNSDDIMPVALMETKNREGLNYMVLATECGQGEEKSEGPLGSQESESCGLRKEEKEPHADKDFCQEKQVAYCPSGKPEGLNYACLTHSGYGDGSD

| SMILES | GI50 (CD74-ROS1 Ba/F3) [nM] | GI50 (EML4-ALK Ba/F3) [nM] | IC50 [1] [nM] | IC50 [2] [nM] | IC50 [3] [nM] |
| --- | --- | --- | --- | --- | --- |
| C[C@H]1Nc2ccn3ncc(c3n2)C(=O)NC[C@@H](CO)Oc2ccc(F)cc21 [Compound 7, (7S,13R)-11-fluoro-7-(hydroxymethyl)-13-methyl-6,7,13,14-tetrahydro-1,15-ethenopyrazolo[4,3-f][1,4,8,10]benzoxatriazacyclotridecin-4(5H)-one] | 22.6 | 715 | 438 | 16.8 | 190 |
| CNC(=O)[C@@H]1CNC(=O)c2cnn3ccc(nc23)N[C@H](C)c2cc(F)ccc2O1 [Compound 14, (7S,13R)-7-(N-methylcarboxamide)-11-fluoro-13-methyl-6,7,13,14-tetrahydro-1,15-ethenopyrazolo[4,3-f][1,4,8,10]benzoxatriazacyclotridecin-4(5H)-one] | 300 | > 10000 | > 10000 | 180 | 3780 |
| C[C@H]1Nc2ccn3ncc(c3n2)C(=O)N[C@H](C(F)F)COc2ccc(F)cc21 [Compound 17, (6S,13R)-6-(difluoromethyl)-11-fluoro-13-methyl-6,7,13,14-tetrahydro-1,15-ethenopyrazolo[4,3-f][1,4,8,10]benzoxatriazacyclotridecin-4(5H)-one] | 3 | 2690 | 297 | 0.2 | 5 |
| C[C@H]1Nc2ccn3ncc(c3n2)C(=O)NC[C@H](CF)Oc2ccc(F)cc21 [Compound 9, (7R,13R)-11-fluoro-7-(fluoromethyl)-13-methyl-6,7,13,14-tetrahydro-1,15-ethenopyrazolo[4,3-f][1,4,8,10]benzoxatriazacyclotridecin-4(5H)-one] | 0.2 | 0.2 | 73 | 0.4 | 93 |
| CC[C@H]1CNC(=O)c2cnn3ccc(nc23)N[C@H](CC)c2cc(F)ccc2O1 [Compound 20, (7S,13R)-7,13-diethyl-11-fluoro-6,7,13,14-tetrahydro-1,15-ethenopyrazolo[4,3-f][1,4,8,10]benzoxatriazacyclotridecin-4(5H)-one] | 0.2 | 151 | 144 | 3 | 404 |
| C[C@H]1Nc2ccn3ncc(c3n2)C(=O)NC[C@H](CN(C)C)Oc2ccc(F)cc21 [Compound 12, (7R,13R)-7-[(dimethylamino)methyl]-11-fluoro-13-methyl-6,7,13,14-tetrahydro-1,15-ethenopyrazolo[4,3-f][1,4,8,10]benzoxatriazacyclotridecin-4(5H)-one] | 130 | 5100 | 2270 | 42 | 1960 |
| C[C@H]1Nc2ccn3ncc(c3n2)C(=O)N[C@@H](CO)COc2ccc(F)cc21 [Compound 6, (6S,13R)-11-fluoro-6-(hydroxymethyl)-13-methyl-6,7,13,14-tetrahydro-1,15-ethenopyrazolo[4,3-f][1,4,8,10]benzoxatriazacyclotridecin-4(5H)-one] | 2.8 | 116 | 65 | 0.5 | 164 |
| C[C@H]1Nc2ccn3ncc(c3n2)C(=O)N[C@@H](C(F)F)COc2ccc(F)cc21 [Compound 16, (6R,13R)-6-(difluoromethyl)-11-fluoro-13-methyl-6,7,13,14-tetrahydro-1,15-ethenopyrazolo[4,3-f][1,4,8,10]benzoxatriazacyclotridecin-4(5H)-one] | 112 | 1910 | 470 | 0.4 | 665 |
| C[C@H]1Nc2ccn3ncc(c3n2)C(=O)NC[C@H](C(F)F)Oc2ccc(F)cc21 [Compound 18, (7R,13R)-7-(difluoromethyl)-11-fluoro-13-methyl-6,7,13,14-tetrahydro-1,15-ethenopyrazolo[4,3-f][1,4,8,10]benzoxatriazacyclotridecin-4(5H)-one] | 0.2 | 28.4 | 24.7 | 0.2 | 98.6 |
| C[C@H]1Nc2ccn3ncc(c3n2)C(=O)N[C@H](CF)COc2ccc(F)cc21 [Compound 11, (6S,13R)-11-fluoro-6-(fluoromethyl)-13-methyl-6,7,13,14-tetrahydro-1,15-ethenopyrazolo[4,3-f][1,4,8,10]benzoxatriazacyclotridecin-4(5H)-one] | 18.9 | 2430 | 590 | 2 | 187 |
| CC[C@@H]1CNC(=O)c2cnn3ccc(nc23)N[C@H](C)c2cc(F)ccc2O1 [Compound 1, (7R,13R)-7-ethyl-11-fluoro-13-methyl-6,7,13,14-tetrahydro-1,15-ethenopyrazolo[4,3-f][1,4,8,10]benzoxatriazacyclotridecin-4(5H)-one] | 0.2 | 13.4 | 16.7 | 0.2 | 67.6 |
| O=C1NCCOc2ccc(F)cc2[C@@H](CCO)Nc2ccn3ncc1c3n2 [Compound 22, (13R)-11-fluoro-13-(2-hydroxyethyl)-6,7,13,14-tetrahydro-1,15-ethenopyrazolo[4,3-f][1,4,8,10]benzoxatriazacyclotridecin-4(5H)-one] | 1000 | > 10000 | 352 | 22 | 854 |
| C[C@H]1Nc2ccn3ncc(c3n2)C(=O)NC[C@@H](CF)Oc2ccc(F)cc21 [Compound 10, (7S,13R)-11-fluoro-7-(fluoromethyl)-13-methyl-6,7,13,14-tetrahydro-1,15-ethenopyrazolo[4,3-f][1,4,8,10]benzoxatriazacyclotridecin-4(5H)-one] | 0.2 | 96.3 | 80 | 1.4 | 57 |
| C[C@H]1Nc2ccn3ncc(c3n2)C(=O)N[C@@H](CN(C)C)COc2ccc(F)cc21 [Compound 13, (6S,13R)-6-[(dimethylamino)methyl]-11-fluoro-13-methyl-6,7,13,14-tetrahydro-1,15-ethenopyrazolo[4,3-f][1,4,8,10]benzoxatriazacyclotridecin-4(5H)-one] | 112 | 1480 | 3220 | 69 | 4030 |
| CC[C@H]1COc2ccc(F)cc2[C@@H](CC)Nc2ccn3ncc(c3n2)C(=O)N1 [Compound 21, (6S,13R)-6,13-diethyl-11-fluoro-6,7,13,14-tetrahydro-1,15-ethenopyrazolo[4,3-f][1,4,8,10]benzoxatriazacyclotridecin-4(5H)-one] | 45.2 | 6790 | 8030 | 3 | 1130 |
| CC(C)(O)[C@H]1Nc2ccn3ncc(c3n2)C(=O)NCCOc2ccc(F)cc21 [Compound 24, (13S)-11-fluoro-13-(2-hydroxypropan-2-yl)-6,7,13,14-tetrahydro-1,15-ethenopyrazolo[4,3-f][1,4,8,10]benzoxatriazacyclotridecin-4(5H)-one] | 8 | 475 | 264 | 5 | 1320 |
| C[C@H]1Nc2ccn3ncc(c3n2)C(=O)NC[C@H](CO)Oc2ccc(F)cc21 [Compound 5, (7R,13R)-11-fluoro-7-(hydroxymethyl)-13-methyl-6,7,13,14-tetrahydro-1,15-ethenopyrazolo[4,3-f][1,4,8,10]benzoxatriazacyclotridecin-4(5H)-one] | 27.9 | 2030 | 794 | 16.5 | 852 |
